# T1: human TGFβ2 (Homo sapiens, UniProt P61812)
# T1 construct: purchased PeproTech
# T1 sequence (P61812 303-414 limits assumed): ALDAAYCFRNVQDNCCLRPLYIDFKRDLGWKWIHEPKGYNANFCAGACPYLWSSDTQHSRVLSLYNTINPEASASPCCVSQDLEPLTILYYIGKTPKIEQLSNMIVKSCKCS
# T2: human TGFβ3 (Homo sapiens, UniProt P10600)
# T2 construct: purchased PeproTech
# T2 sequence (P10600 301-412 limits assumed): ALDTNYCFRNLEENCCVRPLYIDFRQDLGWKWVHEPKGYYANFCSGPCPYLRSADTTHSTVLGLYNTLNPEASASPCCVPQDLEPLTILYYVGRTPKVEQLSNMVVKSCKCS
# B1: TβRIIshort(35-159)-G2Fc: N-terminally truncated (12 aa) short-isoform ECD fused to IgG2 Fc; SEQ ID NO: 33 (unprocessed), 57 (mature) (protein)
# chain: DMIVTDNNGAVKFPQLCKFCDVRFSTCDNQKSCMSNCSITSICEKPQEVCVAVWRKNDENITLETVCHDPKLPYHDFILEDAASPKCIMKEKKKPGETFFMCSCSSDECNDNIIFSEEYNTSNPDTGGGVECPPCPAPPVAGPSVFLFPPKPKDTLMISRTPEVTCVVVDVSHEDPEVQFNWYVDGVEVHNAKTKPREEQFNSTFRVVSVLTVVHQDWLNGKEYKCKVSNKGLPAPIEKTISKTKGQPREPQVYTLPPSREEMTKNQVSLTCLVKGFYPSDIAVEWESNGQPENNYKTTPPMLDSDGSFFLYSKLTVDKSRWQQGNVFSCSVMHEALHNHYTQKSLSLSPGK
# B2: TβRIIshort(23-159)-G2Fc: wild-type human TβRII short isoform ECD (23-159) fused to human IgG2 Fc; SEQ ID NO: 50, with TPA leader SEQ ID NO: 52 (protein)
# chain: TIPPHVQKSVNNDMIVTDNNGAVKFPQLCKFCDVRFSTCDNQKSCMSNCSITSICEKPQEVCVAVWRKNDENITLETVCHDPKLPYHDFILEDAASPKCIMKEKKKPGETFFMCSCSSDECNDNIIFSEEYNTSNPDTGGGVECPPCPAPPVAGPSVFLFPPKPKDTLMISRTPEVTCVVVDVSHEDPEVQFNWYVDGVEVHNAKTKPREEQFNSTFRVVSVLTVVHQDWLNGKEYKCKVSNKGLPAPIEKTISKTKGQPREPQVYTLPPSREEMTKNQVSLTCLVKGFYPSDIAVEWESNGQPENNYKTTPPMLDSDGSFFLYSKLTVDKSRWQQGNVFSCSVMHEALHNHYTQKSLSLSPGK
# B3: TβRIIshort(23-153/N70D)-G2Fc: C-terminally truncated short-isoform ECD with N70D substitution fused to IgG2 Fc; SEQ ID NO: 41 (unprocessed), 61 (mature) (protein)
# chain: TIPPHVQKSVNNDMIVTDNNGAVKFPQLCKFCDVRFSTCDNQKSCMSDCSITSICEKPQEVCVAVWRKNDENITLETVCHDPKLPYHDFILEDAASPKCIMKEKKKPGETFFMCSCSSDECNDNIIFSEEYTGGGVECPPCPAPPVAGPSVFLFPPKPKDTLMISRTPEVTCVVVDVSHEDPEVQFNWYVDGVEVHNAKTKPREEQFNSTFRVVSVLTVVHQDWLNGKEYKCKVSNKGLPAPIEKTISKTKGQPREPQVYTLPPSREEMTKNQVSLTCLVKGFYPSDIAVEWESNGQPENNYKTTPPMLDSDGSFFLYSKLTVDKSRWQQGNVFSCSVMHEALHNHYTQKSLSLSPGK
# Columns and labels:
# [1] = system: patients with PV that did not respond to hydroxyurea; conditions: cited from earlier work
# myelofibrosis patients = conditions: cited from earlier work
# [2] = system: patients with PMF or post-PV/ET MF; conditions: cited from earlier work
# JAK2V617F-positive cells = conditions: cited from earlier work
# [3] = system: patients with a myeloproliferative disorder; conditions: symptomatic splenomegaly; cited from earlier work
# patients with MF = conditions: 82 evaluable patients with MF, three phase 1 and 2 trials; cited from earlier work
# MF patients = conditions: cited from earlier work
# human TGFβ2 = target: T1, human TGFβ2; assay: Reporter gene assay in A549 cells (pGL3(CAGA)12), inhibition of TGFβ2 activity; assay type: cell-based; conditions: Summary of Ligand Selectivity; cell names the ligand in this class
# Source text: (§1) A reporter gene assay in A549 cells was used to determine the ability of hTβRII-hFc variants to inhibit activity of TGFβ1, TGFβ2, and TGFβ3. This assay is based on a human lung carcinoma cell line transfected with a pGL3(CAGA)12 reporter plasmid (Dennler et al., 1998, EMBO 17: 3091-3100) as well as a Renilla reporter plasmid (pRLCMV) to control for transfection efficiency. The CAGA motif is present in the promoters of TGFβ-responsive genes (for example, PAI-1), so this vector is of general use for factors signaling through SMAD2 and SMAD3.
# (§2) On the first day of the assay, A549 cells (ATCC®: CCL-185™) were distributed in 48-well plates at 6.5×10^4 cells per well. On the second day, a solution containing 10 μg pGL3(CAGA)12, 100 ng pRLCMV, 30 μl X-tremeGENE 9 (Roche Applied Science), and 970 μl OptiMEM (Invitrogen) was preincubated for 30 min, then added to Eagle's minimum essential medium (EMEM, ATCC®) supplemented with 0.1% BSA, which was applied to the plated cells (500 μl/well) for incubation overnight at […]. On the third day, medium was removed, and cells were incubated overnight at 37° C. with a mixture of ligands and inhibitors prepared as described below.
# (§3) Serial dilutions of test articles were made in a 48-well plate in a 200 μl volume of assay buffer (EMEM+0.1% BSA). An equal volume of assay buffer containing the test ligand was added to obtain a final ligand concentration equal to the EC50 determined previously. Human TGFβ 1, human TGFβ2, and human TGFβ3 were obtained from PeproTech. Test solutions were incubated at 37° C. for 30 minutes, then 250 μl of the mixture was added to all wells. Each concentration of test article was determined in duplicate. After incubation with test solutions overnight, cells were rinsed with phosphate-buffered saline, then lysed with passive lysis buffer (Promega E1941) and stored overnight at −70° C. On the fourth and final day, plates were warmed to room temperature with gentle shaking. Cell lysates were transferred in duplicate to a chemiluminescence plate (96-well) and analyzed in a luminometer with reagents from a Dual-Luciferase Reporter Assay system (Promega E1980) to determine normalized luciferase activity.
# human TGFβ1 = target: T3, human TGFβ1 (Homo sapiens, UniProt P01137); assay: Reporter gene assay in A549 cells (pGL3(CAGA)12), inhibition of TGFβ1 activity; assay type: cell-based; conditions: for inhibition of TGFβ1 activity / signaling (in words): cell-based reporter assay; for IC50: A549 reporter gene assay, hTGFβ1 640 pg/ml
# T3 construct: purchased PeproTech
# T3 sequence (P01137 279-390 limits assumed): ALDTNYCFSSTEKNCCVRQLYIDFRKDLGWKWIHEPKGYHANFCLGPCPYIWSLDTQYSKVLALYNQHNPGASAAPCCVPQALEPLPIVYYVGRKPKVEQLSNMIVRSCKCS
# Source text: as §1, §2, §3
# human TGFβ3 = target: T2, human TGFβ3; assay: Reporter gene assay in A549 cells (pGL3(CAGA)12), inhibition of TGFβ3 activity; assay type: cell-based; conditions: for inhibition of TGFβ3 activity / signaling (in words): cell-based reporter assay
# Source text: A reporter gene assay in A549 cells was used to determine the ability of hTβRII-hFc variants to inhibit activity of TGFβ1, TGFβ2, and TGFβ3. This assay is based on a human lung carcinoma cell line transfected with a pGL3(CAGA)12 reporter plasmid (Dennler et al., 1998, EMBO 17: 3091-3100) as well as a Renilla reporter plasmid (pRLCMV) to control for transfection efficiency.
# as §2
# as §3, with “An equal volume of assay buffer containing the test ligand was added to obtain a final ligand concentration equal to the EC50 determined previously.” left out
# [4] = Summary of Ligand Selectivity, cell names the ligand in this class
molecule,measurement,setting,value
"CCN(CC)Cc1ccc2cc(COC(=O)Nc3ccc(C(=O)NO)cc3)ccc2c1 [Givinostat, givinostat]",complete or partial response,"[1]; randomized phase 2 trial, PV",approximately 50%
same,tolerability,[1]; the combination,generally well tolerated
C#C[C@]1(O)CC[C@H]2[C@@H]3CCC4=Cc5oncc5C[C@]4(C)[C@H]3CC[C@@]21C [danazol],response rate / responses in anemia (% of patients),myelofibrosis patients; anemic myelofibrosis patients,around 20%
CO[C@H]1C[C@@H]2CC[C@@H](C)[C@@](O)(O2)C(=O)C(=O)N2CCCC[C@H]2C(=O)O[C@H]([C@H](C)C[C@@H]2CC[C@@H](OCCO)[C@H](OC)C2)CC(=O)[C@H](C)/C=C(\C)[C@@H](O)[C@@H](OC)C(=O)[C@H](C)C[C@H](C)/C=C/C=C/C=C/1C [everolimus],complete resolution of pruritus,[2]; 30 evaluable patients,80%
same,complete resolution of systemic symptoms,[2]; 30 evaluable patients,69%
same,"response rate, European Myelofibrosis Network criteria",[2]; in vivo,60%
same,"response rate, International Working Group for Myelofibrosis Research and Treatment criteria",[2]; in vivo,23%
same,proliferation of JAK2V617F-positive cells,JAK2V617F-positive cells,decreased
Nc1cccc2c1CN(C1CCC(=O)NC1=O)C2=O (stereo not drawn) [lenalidomide],spleen responses / response rate,[3],33%
same,effect on anemia,myelofibrosis patients; myelofibrosis patients with del(5q31)-associated anemia,"significant improvement, with resolution of anemia"
Nc1cccc2c1C(=O)N(C1CCC(=O)NC1=O)C2=O (stereo not drawn) [pomalidomide],anemia response according to IWG-MRT criteria,patients with MF,27%
CCCCc1nc2cc(/C=C/C(=O)NO)ccc2n1CCN(CC)CC [pracinostat],IWG criteria anemia responses,MF patients; MF patients,approximately 10%
same,reduction in spleen size (% of patients),"MF patients; human, in vivo",27%
O=C1CCC(N2C(=O)c3ccccc3C2=O)C(=O)N1 (stereo not drawn) [thalidomide],spleen responses / response rate,[3],< 20%
same,tolerability,"myelofibrosis patients; myelofibrosis patients, peripheral neuropathies, constipation, somnolence",poorly tolerated
B1,Degree of Ligand Inhibition: Negligible (ligand TGFβ2),human TGFβ2,TGFβ2
same,Degree of Ligand Inhibition: Moderate (ligand TGFβ1),human TGFβ1; [4],TGFβ1
same,inhibition of TGFβ1 activity / signaling (in words),human TGFβ1,maintains some TGFβ1 inhibitor effects
same,Degree of Ligand Inhibition: Negligible (ligand TGFβ3),human TGFβ3; [4],TGFβ3
same,inhibition of TGFβ3 activity / signaling (in words),human TGFβ3,greatly diminished ability to inhibit
B2,Degree of Ligand Inhibition: Negligible (ligand TGFβ2),human TGFβ2,TGFβ2
same,IC50,human TGFβ1; first experiment (D110K),1.73 nM
same,Degree of Ligand Inhibition: Potent (ligand TGFβ1),human TGFβ1; [4],TGFβ1
same,IC50,"human TGFβ3; A549 reporter gene assay, hTGFβ3 270 pg/ml, first experiment (D110K)",0.14 nM
same,Degree of Ligand Inhibition: Potent (ligand TGFβ3),human TGFβ3; [4],TGFβ3
B3,Degree of Ligand Inhibition: Negligible (ligand TGFβ2),human TGFβ2,TGFβ2
same,IC50,"human TGFβ1; third experiment (C-terminal truncation, N70D)",17.7 nM
same,inhibition of TGFβ1 activity / signaling (in words),human TGFβ1,greatly diminished ability to inhibit TGFβ1
same,Degree of Ligand Inhibition: Potent (ligand TGFβ3),human TGFβ3; [4],TGFβ3
same,inhibition of TGFβ3 activity / signaling (in words),human TGFβ3,virtually undiminished ability to inhibit TGFβ3

# From patent publication US20250042963A1, “METHODS FOR TREATING MYELOPROLIFERATIVE DISORDERS” (Acceleron Pharma Inc., priority 2015, published 2025)
